CCC[C@@H]1CC(=O)N([C@@H](CC)C(N)=O)C1
solubility (mole fraction)
Conditions | 278.15 K | 283.15 K | 288.15 K | 293.15 K | 298.15 K | 303.15 K | 308.15 K | 313.15 K | 318.15 K | 323.15 K
in MTBE | 0.00794 | 0.0117 | 0.0181 | 0.0331 | 0.0496 | 0.078 | 0.11 | 0.175 | 0.291 | 0.419
in diisopropyl ether | 0.00075 | 0.00108 | 0.00235 | 0.00327 | 0.00513 | 0.00618 | 0.00879 | 0.0143 | 0.0205 | 0.0341
in ethanol | 0.189 | 0.226 | 0.258 | 0.297 | 0.328 | 0.371 | 0.415 | 0.466 | 0.523 | 0.576
in ethyl acetate | 0.0369 | 0.0541 | 0.0769 | 0.113 | 0.152 | 0.201 | 0.275 | 0.332 | 0.418 | 0.499
in ethyl formate | 0.0887 | 0.113 | 0.142 | 0.18 | 0.224 | 0.279 | 0.33 | 0.393 | 0.465 | 0.519
in isopropanol | 0.127 | 0.163 | 0.186 | 0.219 | 0.25 | 0.287 | 0.341 | 0.392 | 0.445 | 0.51
in isopropyl acetate | 0.0322 | 0.0429 | 0.0625 | 0.0768 | 0.109 | 0.154 | 0.206 | 0.287 | 0.365 | 0.455
in methanol | 0.234 | 0.275 | 0.309 | 0.337 | 0.367 | 0.416 | 0.445 | 0.497 | 0.557 | 0.61
in n-butyl acetate | 0.0279 | 0.0337 | 0.0428 | 0.0577 | 0.0846 | 0.108 | 0.161 | 0.21 | 0.293 | 0.412
in n-heptane | 1.02e-05 | 1.86e-05 | 3.36e-05 | 4.77e-05 | 8.17e-05 | 0.000113 | 0.000168 | 0.000249 | 0.000335 | 0.000493
in n-hexane | 4.1e-05 | 6.64e-05 | 8.92e-05 | 0.000133 | 0.00018 | 0.000239 | 0.000324 | 0.000413 | 0.000524 | 0.000739
in n-propanol | 0.137 | 0.17 | 0.204 | 0.245 | 0.28 | 0.318 | 0.365 | 0.412 | 0.475 | 0.52
